Measurements as given in US5696112A, “Fused heterocyclic azepines as vasopressin antagonists” (American Cyanamid Company, priority 1995, dated 1997).

target: T1, Vasopressin V1 Receptor Subtype in Human Platelet Membranes (Homo sapiens, UniProt P37288); assay: Binding to V1 Receptor Subtype in Human Platelet membranes
T1 construct: tissue Hudson Valley Blood Services, Westchester Medical Center, Valhalla, N.Y; host or cells: human platelet membranes from frozen platelet rich plasma
Protocol: Radioligand Binding Experiments with Human Platelet Membranes
Platelet Source: Hudson Valley Blood Services, Westchester Medical Center, Valhalla, N.Y.
Platelet Membrane Preparation:
Frozen platelet rich plasma (PRP), received from the Hudson Valley Blood Services are thawed to room temperature. The tubes containing the PRP are centrifuged at 16,000×g for 10 min. at 4° C. and the supernatant fluid discarded. The platelets resuspended in an equal volume of 50.0 mMTris.HCl, pH 7.5 containing 120 mM NaCl and 20.0 mM EDTA. The suspension is recentrifuged at 16,000×g for 10 min. This washing step is repeated one more time. The wash is discarded and the lysed pellets homogenized in low ionic strength buffer of Tris.HCl, 5.0 mM, pH 7.5 containing 5.0 mM EDTA. The homogenate is centrifuged at 39,000×g for 10 min. The resulting pellet is resuspended in Tris.HCl buffer, 70.0 mM, pH 7.5 and recentrifuged at 39,000×g for 10 min. The final pellet is resuspended in 50.0 mM Tris.HCl buffer pH 7.4 containing 120 mM NaCl and 5.0 mM HCl to give 1.0-2.0 mg protein per ml of suspension.
Binding to Vasopressin V1 Receptor Subtype in Human Platelet Membranes:
In wells of a 96 well format microtiter plate, add 100 μl of 50.0 mM Tris.HCl buffer containing 0.2% BSA and a mixture of protease inhibitors (aprotinin, leupeptin etc.). Then add 20 μl of [^3 H]Ligand: (Manning or Arg^8 Vasopressin), to give final concentrations ranging from 0.01 to 10.0 nM. Initiate the binding by adding 80.0 μl of platelet suspension (approx. 100 μg protein). Mix all reagents by pipetting the mixture up and down a few times. Non-specific binding is measured in the presence of 1.0 μM of unlabeled ligand (Manning or Arg^8 Vasopressin). Let the mixture stand undisturbed at room temperature for ninety (90) min. Upon this time, rapidly filter off the incubate under vacuum suction over GF/B filters, using a Brandel® Harvester. Determine the radioactivity caught on the filter disks by the addition of liquid scintillant and counting in a liquid scintillator

T1 sequence (P37288 whole entry): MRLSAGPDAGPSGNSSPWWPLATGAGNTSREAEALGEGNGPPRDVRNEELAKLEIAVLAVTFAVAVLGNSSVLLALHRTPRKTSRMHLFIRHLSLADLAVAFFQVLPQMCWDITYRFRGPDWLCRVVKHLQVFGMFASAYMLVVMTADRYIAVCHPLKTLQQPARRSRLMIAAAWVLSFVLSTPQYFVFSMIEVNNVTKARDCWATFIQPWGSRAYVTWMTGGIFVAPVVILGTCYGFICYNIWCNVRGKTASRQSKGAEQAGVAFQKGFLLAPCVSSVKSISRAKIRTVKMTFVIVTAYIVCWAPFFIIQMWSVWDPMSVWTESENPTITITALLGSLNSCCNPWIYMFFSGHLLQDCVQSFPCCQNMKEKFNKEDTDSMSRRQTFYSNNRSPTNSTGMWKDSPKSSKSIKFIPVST

| SMILES | IC50 |
| --- | --- |
| O=C(Nc1ccc(C(=O)N2CCCCc3sccc32)c(Cl)c1)c1ccc(Cl)cc1Cl [Example 68, N-[4-[(5,6,7,8-Tetrahydro-4H-thieno[3,2-b]azepin-4-yl)carbonyl]-3-chlorophenyl]-2,4-dichlorobenzamide] | 0.68 µM |
| Cc1ccc(F)cc1C(=O)Nc1ccc(C(=O)N2CCCCc3sccc32)c(Cl)c1 [Example 70, N-[4-[(5,6,7,8-Tetrahydro-4H-thieno[3,2-b]azepin-4-yl)carbonyl]-3-chlorophenyl]-5-fluoro-2-methylbenzamide] | 0.11 µM |
| O=C(Nc1ccc(C(=O)N2CCCCc3sc(Cl)cc32)cc1)c1c(Cl)cccc1Cl [Example 95, N-[4-[(2-Chloro-5,6,7,8-tetrahydro-4H-thieno[3,2-b]azepin-4-yl)carbonyl]phenyl]-2,6-dichlorobenzamide] | 0.19 µM |
| O=C(Nc1ccc(C(=O)N2CCCCc3sccc32)c(Cl)c1)c1ccc(F)cc1Cl [Example 183] | 0.18 µM |
